According to patent publication US6737383B1, “Herbicidal oxadiazolidines” (priority 1999, dated 2004):

Experiments:
[1] = test system: bedstraw; experiment: Test B pre/postemergence bedstraw; format: in vivo, Galium aparine
Method in brief: (§1)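 Response is a visual 0-to-10 score relative to untreated plants, where 0 means no effect and 10 means complete control, taken twelve to sixteen days after application. Treatments went onto soil at planting and onto foliage of 1- to 4-leaf plants, using a surfactant-containing non-phytotoxic solvent.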

[2] = test system: blackgrass; experiment: Test B pre/postemergence blackgrass; format: in vivo, Alopecurus myosuroides
Method in brief: as §1

[3] = test system: surinam grass; experiment: Test B pre/postemergence surinam grass; format: in vivo, Brachiaria decumbens
Method in brief: as §1

[4] = test system: cocklebur; experiment: Test B pre/postemergence cocklebur; format: in vivo, Xanthium strumarium
Method in brief: as §1

[5] = test system: corn; experiment: Test B pre/postemergence corn; format: in vivo, Zea mays
Method in brief: as §1

[6] = test system: crabgrass; experiment: Test B pre/postemergence crabgrass; format: in vivo, Digitaria sanguinalis
Method in brief: as §1

[7] = test system: giant foxtail; experiment: Test B pre/postemergence giant foxtail; format: in vivo, Setaria faberii
Method in brief: as §1

[8] = test system: morningglory; experiment: Test B pre/postemergence morningglory; format: in vivo, Ipomoea hederacea
Method in brief: as §1

[9] = test system: pigweed; experiment: Test B pre/postemergence pigweed; format: in vivo, Amaranthus retroflexus
Method in brief: as §1

[10] = test system: rape; experiment: Test B pre/postemergence rape; format: in vivo, Brassica napus
Method in brief: as §1

[11] = test system: soybean; experiment: Test B pre/postemergence soybean; format: in vivo, Glycine max
Method in brief: as §1

[12] = test system: sugar beet; experiment: Test B pre/postemergence sugar beet; format: in vivo, Beta vulgaris
Method in brief: as §1

[13] = test system: velvetleaf; experiment: Test B pre/postemergence velvetleaf; format: in vivo, Abutilon theophrasti
Method in brief: as §1

[14] = test system: wheat; experiment: Test B pre/postemergence wheat; format: in vivo, Triticum aestivum
Method in brief: as §1

[15] = test system: wild oat; experiment: Test B pre/postemergence wild oat; format: in vivo, Avena fatua
Method in brief: as §1

[16] = test system: purple nutsedge; experiment: Test B pre/postemergence purple nutsedge; format: in vivo, Cyperus rotundus
Method in brief: as §1

[17] = Postemergence, Rate 62 g/ha, scale 0 to 10, 0 is no effect, 10 is complete control
[18] = Postemergence, Rate 125 g/ha, scale of 0 to 10 where 0 is no effect and 10 is complete control
[19] = Preemergence, Rate 125 g/ha, scale of 0 to 10 where 0 is no effect and 10 is complete control
[20] = Preemergence, Rate 250 g/ha, scale 0 (no effect) to 10 (complete control)
[21] = Rate 62 g/ha, Preemergence, scale 0 to 10
[22] = Rate 250 g/ha, Postemergence, scale 0 to 10, 0 is no effect, 10 is complete control
[23] = Rate 500 g/ha, Postemergence, scale 0 to 10, 0 is no effect, 10 is complete control
[24] = Rate 500 g/ha, Preemergence, scale 0 to 10 (0 no effect, 10 complete control)

`C#CCn1c(=O)on(C(=O)N(c2ccc(F)cc2)C(C)C)c1=O` [Compound 743] was tested, and the “Plant response rating, Bedstraw” value [1, 17] was 0, the “Bedstraw plant response rating” value [1, 18] was 0 and the “Plant response rating, Bedstraw” value [1, 19] was 0. For the same molecule, the “Bedstraw plant response rating” value [1, 20] was 0, the “Bedstraw plant response rating” value [1, 21] was 0 and the “Bedstraw plant response rating” value [1, 22] was 4. For the same molecule, the “Bedstraw plant response rating” value [1, 23] was 8, the “Bedstraw plant response rating” value [1, 24] was 8 and the “Plant response rating, Blackgrass” value [2, 17] was 3. For the same molecule, the “Blackgrass plant response rating” value [2, 18] was 5, the “Plant response rating, Blackgrass” value [2, 19] was 8 and the “Blackgrass plant response rating” value [2, 20] was 9. For the same molecule, the “Blackgrass plant response rating” value [2, 21] was 8, the “Blackgrass plant response rating” value [2, 22] was 5 and the “Blackgrass plant response rating” value [2, 23] was 5. The “Blackgrass plant response rating” value [2, 24] was 9, the “Plant response rating, B. signalgrass” value [3, 17] was 0 and the “B. signalgrass plant response rating” value [3, 18] was 0. The “Plant response rating, B. signalgrass” value [3, 19] was 3, the “B. signalgrass plant response rating” value [3, 20] was 4 and the “B. signalgrass plant response rating” value [3, 22] was 3. The “B. signalgrass plant response rating” value [3, 23] was 7, the “B. signalgrass plant response rating” value [3, 24] was 8 and the “Plant response rating, Cocklebur” value [4, 17] was 0. For the same molecule, the “Cocklebur plant response rating” value [4, 18] was 0, the “Plant response rating, Cocklebur” value [4, 19] was 0 and the “Cocklebur plant response rating” value [4, 20] was 0. The “Cocklebur plant response rating” value [4, 21] was 0, the “Cocklebur plant response rating” value [4, 22] was 0 and the “Cocklebur plant response rating” value [4, 23] was 3. The “Cocklebur plant response rating” value [4, 24] was 10, the “Plant response rating, Corn” value [5, 17] was 0 and the “Corn plant response rating” value [5, 18] was 0. For the same molecule, the “Plant response rating, Corn” value [5, 19] was 0, the “Corn plant response rating” value [5, 20] was 0 and the “Corn plant response rating” value [5, 21] was 0. The “Corn plant response rating” value [5, 22] was 0, the “Corn plant response rating” value [5, 23] was 0 and the “Corn plant response rating” value [5, 24] was 0. The “Plant response rating, Crabgrass” value [6, 17] was 2, the “Crabgrass plant response rating” value [6, 18] was 5 and the “Plant response rating, Crabgrass” value [6, 19] was 9. For the same molecule, the “Crabgrass plant response rating” value [6, 20] was 9, the “Crabgrass plant response rating” value [6, 21] was 9 and the “Crabgrass plant response rating” value [6, 22] was 7. The “Crabgrass plant response rating” value [6, 23] was 9, the “Crabgrass plant response rating” value [6, 24] was 9 and the “Plant response rating, Giant foxtail” value [7, 17] was 7. The “Giant foxtail plant response rating” value [7, 18] was 7, the “Plant response rating, Giant foxtail” value [7, 19] was 9 and the “Giant foxtail plant response rating” value [7, 20] was 9. For the same molecule, the “Giant foxtail plant response rating” value [7, 21] was 9, the “Giant foxtail plant response rating” value [7, 22] was 8 and the “Giant foxtail plant response rating” value [7, 23] was 8. For the same molecule, the “Giant foxtail plant response rating” value [7, 24] was 9, the “Plant response rating, Morningglory” value [8, 17] was 5 and the “Morningglory plant response rating” value [8, 18] was 3. The “Plant response rating, Morningglory” value [8, 19] was 0, the “Morningglory plant response rating” value [8, 20] was 0 and the “Morningglory plant response rating” value [8, 21] was 0. The “Morningglory plant response rating” value [8, 22] was 2, the “Morningglory plant response rating” value [8, 23] was 10 and the “Morningglory plant response rating” value [8, 24] was 0. The “Plant response rating, Redroot pigweed” value [9, 17] was 0, the “Redroot pigweed plant response rating” value [9, 18] was 0 and the “Plant response rating, Redroot pigweed” value [9, 19] was 9. For the same molecule, the “Redroot pigweed plant response rating” value [9, 20] was 9, the “Redroot pigweed plant response rating” value [9, 21] was 7 and the “Redroot pigweed plant response rating” value [9, 22] was 5. For the same molecule, the “Redroot pigweed plant response rating” value [9, 23] was 8, the “Redroot pigweed plant response rating” value [9, 24] was 10 and the “Plant response rating, Rape” value [10, 17] was 0. The “Rape plant response rating” value [10, 18] was 0, the “Plant response rating, Rape” value [10, 19] was 5 and the “Rape plant response rating” value [10, 20] was 9. For the same molecule, the “Rape plant response rating” value [10, 21] was 5, the “Rape plant response rating” value [10, 22] was 0 and the “Rape plant response rating” value [10, 23] was 3. For the same molecule, the “Rape plant response rating” value [10, 24] was 9, the “Plant response rating, Soybean” value [11, 17] was 0 and the “Soybean plant response rating” value [11, 18] was 0. The “Plant response rating, Soybean” value [11, 19] was 0, the “Soybean plant response rating” value [11, 20] was 0 and the “Soybean plant response rating” value [11, 21] was 0. The “Soybean plant response rating” value [11, 22] was 4, the “Soybean plant response rating” value [11, 23] was 4 and the “Soybean plant response rating” value [11, 24] was 0. The “Plant response rating, Sugarbeets” value [12, 17] was 0, the “Sugarbeets plant response rating” value [12, 18] was 0 and the “Plant response rating, Sugarbeets” value [12, 19] was 2. The “Sugarbeets plant response rating” value [12, 20] was 4, the “Sugarbeets plant response rating” value [12, 21] was 0 and the “Sugarbeets plant response rating” value [12, 22] was 4. For the same molecule, the “Sugarbeets plant response rating” value [12, 23] was 4, the “Sugarbeets plant response rating” value [12, 24] was 6 and the “Plant response rating, Velvetleaf” value [13, 17] was 0. The “Velvetleaf plant response rating” value [13, 18] was 0, the “Plant response rating, Velvetleaf” value [13, 19] was 2 and the “Velvetleaf plant response rating” value [13, 20] was 3. The “Velvetleaf plant response rating” value [13, 21] was 0, the “Velvetleaf plant response rating” value [13, 22] was 0 and the “Velvetleaf plant response rating” value [13, 23] was 4. The “Velvetleaf plant response rating” value [13, 24] was 3, the “Plant response rating, Wheat” value [14, 17] was 0 and the “Wheat plant response rating” value [14, 18] was 0. For the same molecule, the “Plant response rating, Wheat” value [14, 19] was 0, the “Wheat plant response rating” value [14, 20] was 0 and the “Wheat plant response rating” value [14, 21] was 0. For the same molecule, the “Wheat plant response rating” value [14, 22] was 3, the “Wheat plant response rating” value [14, 23] was 6 and the “Wheat plant response rating” value [14, 24] was 5. The “Plant response rating, Wild oats” value [15, 17] was 0, the “Wild oats plant response rating” value [15, 18] was 0 and the “Plant response rating, Wild oats” value [15, 19] was 5. The “Wild oats plant response rating” value [15, 20] was 5, the “Wild oats plant response rating” value [15, 21] was 5 and the “Wild oats plant response rating” value [15, 22] was 0. The “Wild oats plant response rating” value [15, 23] was 3, the “Wild oats plant response rating” value [15, 24] was 9 and the “Plant response rating, Nutsedge” value [16, 17] was 0. For the same molecule, the “Nutsedge plant response rating” value [16, 18] was 2, the “Nutsedge plant response rating” value [16, 20] was 2 and the “Nutsedge plant response rating” value [16, 21] was 0. For the same molecule, the “Nutsedge plant response rating” value [16, 22] was 3, the “Nutsedge plant response rating” value [16, 23] was 9 and the “Nutsedge plant response rating” value [16, 24] was 9.
